# Measurements published in patent publication US4621089A, “Pyrazolopyridine derivatives and their use in treating inflammation and allergic conditions” (Beecham Group p.l.c., priority 1984, dated 1986).
# Key:
# cantharidin mouse ear = assay: Mouse Cantharidin Screen (topical anti-inflammatory activity, mouse ear); format: in vivo; details: ears weighed 24 h after cantharidin
# Procedure: Compounds were tested for topical anti-inflammatory activity in a cantharidin mouse ear screen, modified from Swinge et al [Swingle, K. F., Reiter, M. J. and Schwartzmiller, D. H., Arch. Int. Pharmacodyn., (1981), 254, 168-176].
# 25 μg cantharidin (in 10 μl THF/MeOH) was applied to both ears. Compound, in the same solvent, was applied at the same time, to the left ear only. Ears were weight 24 h after cantharidin application. Percentage inhibition of the acute inflammatory swelling refers to the increase in weight of left ears (cantharidin plug compound) compared with solvent-treated negative controls, as a proportion of the increase in weight of right ears (cantharidin alone) over similar controls.
# [1] = system: mouse sensitised to oxazolone; assay: Mouse Oxazolone Screen (topical anti-inflammatory activity); format: in vivo; details: 500 μg/ear topical, ear weights 24 h after oxazolone challenge
# Procedure: Compounds were tested for topical anti-inflammatory activity in a screen using the mouse sensitised to oxazolone, by a method modified from that of Dietrich and Hess [Dietrich, F. M., and Hess, R., Int. Arch. Allergy, (1970), 38, 246-259].
# Mice were sensitised with oxazolone (2 mg in 20 μl ethanol) on a shaved area of the abdomen. Five days later, the animals recieved 10 μl THF/MeOH (1:1 v/v) on the right ear, and the test compound in the same solvent on the left ear. One hour later, the animals were challenged with 100 μg oxazolone in 10 μl acetone on each ear. Ear weights were measured 24 h later. Percentage inhibition of the inflammatory swelling refers to the increase in weight of left ears (oxazolone plus compound) compared with solvent-treated negative controls, as a proportion of the increase in weight of right ears (oxazolone alone) over similar controls.
# mice = details: J. Heterocycl. Chem. 1971, 8(6), 1035-7; cited from earlier work
# [2] = system: 5-Lipoxygenase enzyme from RBL-1 cells; assay: RBL-1 5-Lipoxygenase Screen; format: biochemical; details: 20 μM compound, 10,000 g supernatant, 6.3 μm arachidonic acid, 29° C.
# Procedure: 5-Lipoxygenase enzyme was prepared as a 10,000 g supernatant from RBL-1 cells by the method of Jakschik [Jakschik, B. A., Sun. F. F., Lee, L. M. and Steinhoff, M. M., 1980, Biochem. Biophys. Res. Comm. 95, 103]. The 10,000 g supernatant was diluted with homogenization buffer to the equivalent of 1.5-2.5×10^7 cells ml^-1 and made 2 mM with respect to CaCl2. Aliquots of 0.5 ml were then dispensed into tubes, and incubated at 29° C. with 5 γl ethanol or compound in ethanol at the desired concentration for 2 min. Then [1-^14 C] arachidonic acid was added in buffer to give a final concentration of 6.3 μm and 0.2 μCi per incubation, and the reaction continued at 29° C. for 2 min. The reaction was terminated by adding 1 ml of acetone and cooling on ice, 0.5 ml of ice-cold saline and 10 μl of 2N formic acid were added, and the mixture was extracted with 2×2 ml of chloroform. The extract was stored under N2 at -20° C. until analysis by chromatography. Activity was measured as the percentage of total radioactivity found in 5-HETE and 5,12-diHETE, and inhibition calculated as the decrease in formation of the sum of these two species in compound-treated incubates relative to control incubates.
compound,measurement,setting,value
"C=CCNc1c(C(=O)OCC)cnc2cn[nH]c12 [Example 2, Ethyl 7-Allylamino-1H-pyrazolo[4,3-b]-pyridine-6-carboxylate]",inhibition of the acute inflammatory swelling,cantharidin mouse ear; 500 μg/ear topical,20%
"CCOC(=O)c1cnc2cn[nH]c2c1Nc1ccccc1 [Example 1, Ethyl 7-anilino-1H-pyrazolo[4,3-b]pyridine-6-carboxylate]",inhibition of the inflammatory swelling,[1],24%
CC(=O)N(C(C)=O)c1cc(C)nc2c(C)n[nH]c12 [compound wherein R is NAc2],CNS antidepressant activity,mice,CNS antidepressant activity
"CCCCNc1c(C(=O)OCC)cnc2cn[nH]c12 [Example 6, Ethyl 7-n-Butylamino-1H-pyrazolo[4,3-b]pyridine-6-carbosylate]","inhibition of formation of 5-HETE and 5,12-diHETE",[2],78%
same,inhibition of the acute inflammatory swelling,cantharidin mouse ear; 200 μg/ear topical,42%
